Results published in ChEMBL document CHEMBL4392822, “HSP60/10 chaperonin systems are inhibited by a variety of approved drugs, natural products, and known bioactive molecules” (Bioorg Med Chem Lett, 2019).

Tests used:
[1] = target: GroEL/GroES; parameters: species or system Escherichia coli
Description: (§1) Inhibition of Escherichia coli GroEL expressed in Escherichia coli DH5alpha/Escherichia coli GroES expressed in Escherichia coli BL21 (DE3) assessed as reduction in GroEL/GroES-mediated denatured rhodanese refolding by measuring rhodanese enzyme activity after 45 mins by Fe(SCN)3 dye based spectrometric analysis

[2] = target: Chaperonin GroEL (Escherichia coli (strain K12), UniProt P0A6F5);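 note: inhibition of GroEL ATPase activity with ATP as substrate, 60 min incubation, spectrometric read-out, recombinant enzyme produced in Escherichia coli DH5alpha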
Sequence of Chaperonin GroEL (P0A6F5 whole entry): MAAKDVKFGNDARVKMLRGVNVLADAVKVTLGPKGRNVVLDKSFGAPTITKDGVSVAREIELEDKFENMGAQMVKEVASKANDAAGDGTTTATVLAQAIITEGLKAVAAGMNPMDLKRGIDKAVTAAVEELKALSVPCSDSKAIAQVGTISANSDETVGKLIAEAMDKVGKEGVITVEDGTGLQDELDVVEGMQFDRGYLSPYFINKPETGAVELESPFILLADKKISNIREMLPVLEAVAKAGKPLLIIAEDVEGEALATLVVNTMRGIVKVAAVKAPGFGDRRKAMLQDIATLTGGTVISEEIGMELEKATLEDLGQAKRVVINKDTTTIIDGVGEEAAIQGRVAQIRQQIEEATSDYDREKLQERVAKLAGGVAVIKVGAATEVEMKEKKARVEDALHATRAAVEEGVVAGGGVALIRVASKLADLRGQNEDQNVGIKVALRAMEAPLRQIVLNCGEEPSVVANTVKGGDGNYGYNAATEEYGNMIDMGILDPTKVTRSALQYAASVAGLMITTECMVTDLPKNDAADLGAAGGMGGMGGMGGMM
Description: Inhibition of ATPase activity of Escherichia coli GroEL expressed in Escherichia coliDH5alpha incubated for 60 mins using ATP by spectrometric analysis

[3] = target: HSP60/HSP10 (Homo sapiens, UniProt P10809+P61604)
Sequence of HSP60/HSP10 (Homo sapiens, UniProt P10809+P61604) (P10809 whole entry): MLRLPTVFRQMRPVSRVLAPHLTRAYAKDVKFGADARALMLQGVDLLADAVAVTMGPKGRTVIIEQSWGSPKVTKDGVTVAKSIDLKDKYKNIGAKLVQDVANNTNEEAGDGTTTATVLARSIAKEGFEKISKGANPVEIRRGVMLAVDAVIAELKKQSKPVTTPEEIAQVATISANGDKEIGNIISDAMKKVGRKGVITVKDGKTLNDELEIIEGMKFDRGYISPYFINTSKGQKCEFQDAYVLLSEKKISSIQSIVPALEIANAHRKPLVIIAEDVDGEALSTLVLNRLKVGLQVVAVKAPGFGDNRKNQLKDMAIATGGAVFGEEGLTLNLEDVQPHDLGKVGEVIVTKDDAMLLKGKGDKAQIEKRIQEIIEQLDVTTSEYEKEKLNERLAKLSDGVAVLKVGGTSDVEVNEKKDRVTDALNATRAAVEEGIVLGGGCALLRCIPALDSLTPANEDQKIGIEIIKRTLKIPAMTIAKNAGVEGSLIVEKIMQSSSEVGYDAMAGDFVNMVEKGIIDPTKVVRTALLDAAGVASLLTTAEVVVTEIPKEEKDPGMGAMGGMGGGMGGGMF
Sequence of HSP60/HSP10 (Homo sapiens, UniProt P10809+P61604) (P61604 whole entry): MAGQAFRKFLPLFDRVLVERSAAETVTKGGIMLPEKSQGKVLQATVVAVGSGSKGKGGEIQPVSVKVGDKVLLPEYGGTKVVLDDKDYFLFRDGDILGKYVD
Description: (§2) Inhibition of human N-terminal octa-His-tagged HSP60 expressed in Escherichia coli Rosetta(DE3) pLysS/human HSP10 expressed in Escherichia coli Rosetta(DE3) assessed as reduction in HSP60/HSP10-mediated denatured MDH refolding by measuring MDH enzyme activity using sodium mesoxalate as substrate after 40 to 60 mins by malachite green dye based spectrometric analysis

[4] = target: GroEL/GroES; parameters: species or system Escherichia coli; remark: listed apart in the source
Description: (§3) Inhibition of Escherichia coli GroEL expressed in Escherichia coliDH5alpha/Escherichia coli GroES expressed in Escherichia coli BL21 (DE3) assessed as reduction in GroEL/GroES-mediated denatured soluble pig heart MDH refolding by measuring MDH enzyme activity using sodium mesoxalate as substrate after 20 to 40 mins by malachite green dye based spectrometric analysis

[5] = target: T1, E. coli GroEL/ES (Escherichia coli, UniProt P0A6F5)
T1 sequence (P0A6F5 whole entry, looked up): as the sequence (P0A6F5 whole entry) above
Description: as §1

[6] = target: T2, Thiosulfate sulfurtransferase (Homo sapiens, UniProt Q16762); format: ADME;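 note: native rhodanese of unspecified species, enzyme activity read after 45 min by spectrophotometric detection of Fe(SCN)3 colour, IC50 reflects activity reduction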
T2 sequence (Q16762 whole entry): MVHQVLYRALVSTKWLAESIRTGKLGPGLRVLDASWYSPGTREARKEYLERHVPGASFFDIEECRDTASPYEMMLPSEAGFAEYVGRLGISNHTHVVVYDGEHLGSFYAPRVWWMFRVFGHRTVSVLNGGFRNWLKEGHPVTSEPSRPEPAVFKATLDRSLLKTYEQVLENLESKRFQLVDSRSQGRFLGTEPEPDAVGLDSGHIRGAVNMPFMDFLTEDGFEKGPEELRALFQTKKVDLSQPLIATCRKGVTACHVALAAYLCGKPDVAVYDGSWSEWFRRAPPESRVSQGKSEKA
Description: Inhibition of native rhodanese (unknown origin) assessed as reduction in rhodanese enzyme activity after 45 mins by Fe(SCN)3 dye based spectrometric analysis

[7] = target: HSP60/HSP10 (Homo sapiens, UniProt P10809)
Sequence of HSP60/HSP10 (Homo sapiens, UniProt P10809) (P10809 whole entry): as the sequence (P10809 whole entry) above
Sequence of HSP60/HSP10 (Homo sapiens, UniProt P10809) (P61604 whole entry, further chain): as the sequence (P61604 whole entry) above
Description: as §2

[8] = target: T1, E. coli GroEL/ES; remark: listed apart in the source
Description: as §3

SMILES | IC50 [1] | IC50 [2] | IC50 [3] | IC50 [4] | IC50 [5] | IC50 [6] | IC50 [7] | IC50 [8]
C=CC1=C(C)c2cc3[nH]c(cc4nc(cc5[nH]c(cc1n2)c(C)c5CCC(=O)O)C(CCC(=O)O)=C4C)c(C)c3C=C [PROTOPORPHYRIN] | 3 µM | > 250 µM | 4.9 µM | 4.4 µM |  |  |  | 
Oc1c(Cl)cc(Cl)cc1Sc1cc(Cl)cc(Cl)c1O [BITHIONOL] |  | > 250 µM |  |  | 13 µM | > 100 µM | 2.8 µM | 4.3 µM
CC1=CC(=O)c2ccccc2C1=O [MENADIONE] |  | > 250 µM |  |  | 2.5 µM | 1 µM | 15 µM | 9 µM
C=C1CC[C@H](O)C/C1=C/C=C1\CCC[C@]2(C)[C@@H]([C@H](C)CCCC(C)C)CC[C@@H]12 [CHOLECALCIFEROL] |  | > 250 µM |  |  | 31 µM | > 100 µM | 11 µM | 22 µM
CC[C@H]1OC(=O)[C@H](C)[C@@H](O[C@H]2C[C@@](C)(OC)[C@@H](O)[C@H](C)O2)[C@H](C)[C@@H](O[C@@H]2O[C@H](C)C[C@H](N(C)C)[C@H]2O)[C@](C)(O)C[C@@H](C)C(=O)[C@H](C)[C@@H](O)[C@]1(C)O [ERYTHROMYCIN] |  | > 250 µM |  |  | 178 µM | > 100 µM | > 100 µM | > 100 µM
O=C(/C=C/c1ccc(O)cc1)c1ccccc1 [4-HYDROXYCHALCONE] |  | > 250 µM |  |  | 40 µM | > 100 µM | 22 µM | 21 µM
CCCCC/C=C\C/C=C\C/C=C\C/C=C\CCCC(=O)O [ARACHIDONIC ACID] |  | > 250 µM |  |  | 18 µM | > 100 µM | 4.5 µM | 7.3 µM
CC1=CC(=O)c2c(O)cccc2C1=O [PLUMBAGIN] |  | > 250 µM |  |  | 0.29 µM | 0.06 µM | 6.3 µM | 3.8 µM
CCCCCCCCCCCCCCCC(=O)OC[C@H](O)[C@H]1OC(=O)C(O)=C1O [ASCORBYL PALMITATE] |  | 177 µM |  |  | 8.5 µM | 53 µM | 3.1 µM | 3.5 µM
CN(C)c1ccc(C(=C2C=CC(=[N+](C)C)C=C2)c2ccc(N(C)C)cc2)cc1 [GENTIAN VIOLET] |  | > 250 µM |  |  | 15 µM | 16 µM | 5.8 µM | 11 µM
COc1ccc(-c2ccc3cc(C(=O)O)ccc3c2)cc1C12CC3CC(CC(C3)C1)C2 |  | > 250 µM |  |  | 5.1 µM | > 100 µM | 2.3 µM | 2.1 µM
O=C(O)C1=CC(=C(c2ccc(O)c(C(=O)O)c2)c2ccc(O)c(C(=O)O)c2)C=CC1=O [AURINTRICARBOXYLIC ACID] |  | > 250 µM |  |  | 0.57 µM | > 100 µM | 3.2 µM | 0.9 µM
